Test results published in the supplement of paper PMC11208160.

Assay: recombinant barcode read abundance after kanamycin selection (control-corrected) (log10(CPM+1)); higher = more efficient recombination; sequences stand for … in AGTGCAGAGAAAATCGGCCAGTTTTCTCTGCCTGCAGTCCGCATGCCGT…AGATTTATGCAGCGGACTGCCTTTCTCCCAAAGTGATAAACCGGACAGTATCATGGACCGGTTTTCCCGGTAATCCGTATTTGCAAGGTTGGTTTCACT; site = the 11-nt target
Summary of the method: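 For this pooled screen, each oligo contained a promoter, a target, a barcode and the J23119-driven first 104 bases of the bridge RNA. Gibson cloning placed it into a vector supplying the remaining 73 bp and a T7-inducible recombinase, and the pool was co-electroporated into E. coli with a donor plasmid. Recombination efficiency is derived from barcode counts per million at recombinant junctions after averaging and control correction, and is expressed on a log scale as log10(CPM+1), with selection on chloramphenicol/ampicillin/kanamycin plus 0.1 mM IPTG against a chloramphenicol/ampicillin LB agar control.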
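Note: IS621 recombinase and bridge RNA in Escherichia coli cells.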

| Sequence | recombinant barcode read abundance (log10) |
| --- | --- |
| TCGGAGTCTTGGGTTCTAACCTGTTGCAT (site TCGGAGTCTAG) | 1.4 |
| TCGGAGTCTTGGGTTCTAACCTGTTGCAT (site TCGGAGTCTAT) | 2.29 |
| TCGGAGTCTTGGGTTCTAACCTGTTGCGC (site CTATGACCTCA) | 0.0526 |
| TCGGAGTCTTGGGTTCTAACCTGTTGCGC (site TCGGAGTCTGC) | 1.37 |
| TCGGAGTCTTGGGTTCTAACCTGTTGCTG (site TCGGAGTCTCA) | 0.963 |
| TCGGAGTCTTGGGTTCTAACCTGTTGCTG (site TCGGAGTCTCG) | 0.446 |
| TCGGATACTTGGGTTCTAACCTGTTGCTT (site TCGGATACTAA) | 0.659 |
| TCGGATACTTGGGTTCTAACCTGTTGCTT (site TCGGATACTAC) | 0.249 |
| TCGGATACTTGGGTTCTAACCTGTTGCTT (site TCGGATACTAG) | 0.759 |
| TCGGATACTTGGGTTCTAACCTGTTGCTT (site TCGGATACTAT) | 0.323 |
| TCGTCACCTTGGGTTCTAACCTGTTGCAT (site CTAGTGGCTCG) | 0 |
| TCGTCACCTTGGGTTCTAACCTGTTGCAT (site TCGTCACCTAT) | 0.0694 |
| TCGTCATCTTGGGTTCTAACCTGTTGCCT (site TCGTCATCTAG) | 0.21 |
| TCGTCATCTTGGGTTCTAACCTGTTGCCT (site TCGTCCTCTAG) | 0.276 |
| TCGTGCCCTTGGGTTCTAACCTGTTGCTG (site TCGTGCCCTAA) | 0.0676 |
| TCGTGCCCTTGGGTTCTAACCTGTTGCTG (site TCGTGCCCTCA) | 0.156 |
| TCGTTCCCTTGGGTTCTAACCTGTTGCTT (site TCGTTCCCTAA) | 0.105 |
| TCGTTCCCTTGGGTTCTAACCTGTTGCTT (site TCGTTGCCTAG) | 0.0502 |
| TCGTTGCCTTGGGTTCTAACCTGTTGCCT (site TCGTTCCCTAA) | 0.695 |
| TCGTTGCCTTGGGTTCTAACCTGTTGCCT (site TCGTTGCCTAG) | 0.533 |
| TCTAACCCTTGGGTTCTAACCTGTTGCGG (site TCAAACCCTCC) | 0.332 |
| TCTAACCCTTGGGTTCTAACCTGTTGCGG (site TCCAACCCTCC) | 0.0105 |

| Sequence | recombinant barcode read abundance (log10) |
| --- | --- |
| TCTAACCCTTGGGTTCTAACCTGTTGCGG (site TCGAACCCTCC) | 0.091 |
| TCTAACCCTTGGGTTCTAACCTGTTGCGG (site TCTAACCCTCC) | 1.09 |
| TCTAAGTCTTGGGTTCTAACCTGTTGCCG (site TCTAAGTCTAG) | 0.0709 |
| TCTAAGTCTTGGGTTCTAACCTGTTGCCG (site TCTAAGTCTCG) | 0.137 |
| TCTAAGTCTTGGGTTCTAACCTGTTGCCG (site TCTAAGTCTGG) | 0.0885 |
| TCTAAGTCTTGGGTTCTAACCTGTTGCCG (site TCTAAGTCTTG) | 0.483 |
| TCTACTTCTTGGGTTCTAACCTGTTGCCT (site TCTACATCTAG) | 0.0183 |
| TCTACTTCTTGGGTTCTAACCTGTTGCCT (site TCTACCTCTAG) | 0.123 |
| TCTACTTCTTGGGTTCTAACCTGTTGCCT (site TCTACGTCTAG) | 0.0937 |
| TCTACTTCTTGGGTTCTAACCTGTTGCCT (site TCTACTTCTAG) | 0.136 |
| TCTAGACCTTGGGTTCTAACCTGTTGCCT (site TCTAGAACTAG) | 0 |
| TCTAGACCTTGGGTTCTAACCTGTTGCCT (site TCTAGACCTAG) | 0.0778 |
| TCTAGACCTTGGGTTCTAACCTGTTGCCT (site TCTAGAGCTAG) | 0.139 |
| TCTAGACCTTGGGTTCTAACCTGTTGCCT (site TCTAGATCTAG) | 0.03 |
| TCTAGAGCTTGGGTTCTAACCTGTTGCGG (site CCTCGAGCTCC) | 0.176 |
| TCTAGAGCTTGGGTTCTAACCTGTTGCGG (site TCTAGAGCTCC) | 1.61 |
| TCTAGTCCTTGGGTTCTAACCTGTTGCCT (site TCTAGACCTTG) | 0.418 |
| TCTAGTCCTTGGGTTCTAACCTGTTGCCT (site TCTAGTCCTAG) | 0.036 |
| TCTCAACCTTGGGTTCTAACCTGTTGCCT (site TCTAAACCTAG) | 0.0445 |
| TCTCAACCTTGGGTTCTAACCTGTTGCCT (site TCTCAACCTAG) | 1.33 |
| TCTCAGGCTTGGGTTCTAACCTGTTGCCG (site TCACAGGCTCG) | 0.203 |
| TCTCAGGCTTGGGTTCTAACCTGTTGCCG (site TCTCAGGCTCG) | 0.0148 |

| Sequence | recombinant barcode read abundance (log10) |
| --- | --- |
| TCTCAGTCTTGGGTTCTAACCTGTTGCGG (site TCCCAGTCTCA) | 0.0631 |
| TCTCAGTCTTGGGTTCTAACCTGTTGCGG (site TCTCAGTCTCC) | 1.14 |
| TCTCCAGCTTGGGTTCTAACCTGTTGCCT (site TCGCAAGCTAG) | 0.0305 |
| TCTCCAGCTTGGGTTCTAACCTGTTGCCT (site TCTCCAGCTAG) | 1.13 |
| TCTCGAGCTTGGGTTCTAACCTGTTGCGA (site CTGGCGCCTAT) | 0.839 |
| TCTCGAGCTTGGGTTCTAACCTGTTGCGA (site TCTCGAGCTTC) | 0.78 |
| TCTCGGACTTGGGTTCTAACCTGTTGCCT (site TCACGGACTAG) | 0.147 |
| TCTCGGACTTGGGTTCTAACCTGTTGCCT (site TCCCGGACTAG) | 0.0144 |
| TCTCGGACTTGGGTTCTAACCTGTTGCCT (site TCGCGGACTAG) | 0.0137 |
| TCTCGGACTTGGGTTCTAACCTGTTGCCT (site TCTCGGACTAG) | 0.249 |
| TCTCTCGCTTGGGTTCTAACCTGTTGCCT (site CAGAATCCTCC) | 0.108 |
| TCTCTCGCTTGGGTTCTAACCTGTTGCCT (site TCTCTCGCTAG) | 0.47 |
| TCTGATCCTTGGGTTCTAACCTGTTGCCT (site TCTCACCCTAG) | 0.0615 |
| TCTGATCCTTGGGTTCTAACCTGTTGCCT (site TCTGATCCTAG) | 0.7 |
| TCTGGGCCTTGGGTTCTAACCTGTTGCTA (site TCTGGGCCTAA) | 0.42 |
| TCTGGGCCTTGGGTTCTAACCTGTTGCTA (site TCTGGGCCTTA) | 0.364 |
| TCTTAGACTTGGGTTCTAACCTGTTGCGA (site CAAACCTCTGT) | 0.0411 |
| TCTTAGACTTGGGTTCTAACCTGTTGCGA (site TCTTAGACTTC) | 0.638 |
| TCTTAGACTTGGGTTCTAACCTGTTGCGG (site ACTTAGACTCC) | 0.172 |
| TCTTAGACTTGGGTTCTAACCTGTTGCGG (site TCTTAGACTCC) | 1.47 |
| TCTTATTCTTGGGTTCTAACCTGTTGCGT (site TCTAATTCTAC) | 0.0715 |
| TCTTATTCTTGGGTTCTAACCTGTTGCGT (site TCTCATTCTAC) | 0.0847 |

| Sequence | recombinant barcode read abundance (log10) |
| --- | --- |
| TCTTATTCTTGGGTTCTAACCTGTTGCGT (site TCTGATTCTAC) | 0.0368 |
| TCTTATTCTTGGGTTCTAACCTGTTGCGT (site TCTTATTCTAC) | 0.258 |
| TCTTGGACTTGGGTTCTAACCTGTTGCAC (site AGGGACCCTAG) | 0.0242 |
| TCTTGGACTTGGGTTCTAACCTGTTGCAC (site TCTTGGACTGT) | 0.104 |
| TCTTGGACTTGGGTTCTAACCTGTTGCTC (site TCTTGGACTAA) | 0.0489 |
| TCTTGGACTTGGGTTCTAACCTGTTGCTC (site TCTTGGACTCA) | 0.153 |
| TCTTGGACTTGGGTTCTAACCTGTTGCTC (site TCTTGGACTGA) | 0.165 |
| TCTTGGACTTGGGTTCTAACCTGTTGCTC (site TCTTGGACTTA) | 0.0183 |
| TCTTGTCCTTGGGTTCTAACCTGTTGCGG (site TCTTGTCCTAC) | 0.0164 |
| TCTTGTCCTTGGGTTCTAACCTGTTGCGG (site TCTTGTCCTCC) | 0.526 |
| TCTTGTCCTTGGGTTCTAACCTGTTGCGG (site TCTTGTCCTGC) | 0.104 |
| TCTTGTCCTTGGGTTCTAACCTGTTGCGG (site TCTTGTCCTTC) | 0.0135 |
| TCTTTAGCTTGGGTTCTAACCTGTTGCAG (site CTAAGGTCTTA) | 0.24 |
| TCTTTAGCTTGGGTTCTAACCTGTTGCAG (site TCTTTAGCTCT) | 0.236 |
| TGAAACTCTTGGGTTCTAACCTGTTGCGG (site GTCGGTCCTGT) | 0.27 |
| TGAAACTCTTGGGTTCTAACCTGTTGCGG (site TGAAACTCTCC) | 1.16 |
| TGAAAGACTTGGGTTCTAACCTGTTGCCG (site GACGGACCTAT) | 0.475 |
| TGAAAGACTTGGGTTCTAACCTGTTGCCG (site TGAAAGACTCG) | 0.762 |
| TGAAGGTCTTGGGTTCTAACCTGTTGCCT (site TGAAAGTCTAG) | 0.213 |
| TGAAGGTCTTGGGTTCTAACCTGTTGCCT (site TGAACGTCTAG) | 0.175 |
